How the values were obtained:
[1] = design: method as in PMID 24689770; conditions: cited from earlier work
[2] = system: P. berghei; design: method as in PMID 24689770; conditions: mice, 50 mg/kg po, groups of three mice; mean (SD); cited from earlier work
[3] = system: P. falciparum 3D7; assay: FACS assay for parasite growth; conditions: read-out: Parasite growth inhibition EC50; FACS; mean (SD), n = 3
[4] = molecular target: PvCDPK1 (Plasmodium vivax, UniProt A5KBU9); assay: Rh-ParM ADP sensor IC50 assay, PvCDPK1; conditions: read-out: IC50 PvCDPK1; Rh-ParM, absence of MTIP; mean (SD), n = 3
PvCDPK1, sequence (A5KBU9 entry or part of it): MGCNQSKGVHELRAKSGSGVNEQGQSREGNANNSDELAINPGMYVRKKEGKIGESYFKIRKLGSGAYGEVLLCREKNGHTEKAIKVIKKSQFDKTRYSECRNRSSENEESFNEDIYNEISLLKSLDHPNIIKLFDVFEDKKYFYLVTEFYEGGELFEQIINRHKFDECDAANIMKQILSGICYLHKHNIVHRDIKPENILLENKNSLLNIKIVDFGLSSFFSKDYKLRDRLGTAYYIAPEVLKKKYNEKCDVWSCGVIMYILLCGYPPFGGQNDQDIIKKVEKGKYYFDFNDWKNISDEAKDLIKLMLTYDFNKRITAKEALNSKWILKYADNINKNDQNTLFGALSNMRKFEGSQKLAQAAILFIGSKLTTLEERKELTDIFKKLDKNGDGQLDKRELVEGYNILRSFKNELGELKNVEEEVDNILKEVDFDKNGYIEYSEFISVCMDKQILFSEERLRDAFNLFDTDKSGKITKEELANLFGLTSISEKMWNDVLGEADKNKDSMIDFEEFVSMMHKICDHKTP

[5] = molecular target: PbCDPK1 (Plasmodium berghei, UniProt A0A509AHB6); assay: Rh-ParM ADP sensor IC50 assay, PbCDPK1; conditions: read-out: IC50 PbCDPK1; Rh-ParM, absence of MTIP; mean (SD), n = 3
PbCDPK1, sequence (A0A509AHB6 whole entry): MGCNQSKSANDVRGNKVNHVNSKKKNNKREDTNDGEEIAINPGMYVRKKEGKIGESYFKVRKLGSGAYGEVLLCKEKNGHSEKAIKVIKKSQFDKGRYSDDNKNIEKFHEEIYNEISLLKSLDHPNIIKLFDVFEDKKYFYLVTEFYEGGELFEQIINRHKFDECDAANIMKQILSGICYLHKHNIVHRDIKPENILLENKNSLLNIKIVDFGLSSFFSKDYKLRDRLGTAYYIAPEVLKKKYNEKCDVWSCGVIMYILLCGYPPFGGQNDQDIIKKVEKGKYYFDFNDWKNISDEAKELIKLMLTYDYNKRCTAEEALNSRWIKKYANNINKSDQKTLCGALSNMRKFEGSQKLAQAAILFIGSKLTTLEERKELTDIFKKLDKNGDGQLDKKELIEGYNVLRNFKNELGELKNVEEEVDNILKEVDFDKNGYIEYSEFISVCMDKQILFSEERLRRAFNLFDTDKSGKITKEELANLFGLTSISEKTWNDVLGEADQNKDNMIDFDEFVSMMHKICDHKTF

[6] = molecular target: PfCDPK1 (Plasmodium falciparum, UniProt P62344); assay: Thermal shift assay; format: binding; design: 50 nM full-length recombinant PfCDPK1 and 8 μM MTIP in assay buffer 1; GST (from vector pGEX6P1) (N, cleaved yes); made in house; host or cells: Escherichia coli BL21 Gold; conditions: 10 μM compound, relative to DMSO controls
PfCDPK1, sequence (P62344 whole entry): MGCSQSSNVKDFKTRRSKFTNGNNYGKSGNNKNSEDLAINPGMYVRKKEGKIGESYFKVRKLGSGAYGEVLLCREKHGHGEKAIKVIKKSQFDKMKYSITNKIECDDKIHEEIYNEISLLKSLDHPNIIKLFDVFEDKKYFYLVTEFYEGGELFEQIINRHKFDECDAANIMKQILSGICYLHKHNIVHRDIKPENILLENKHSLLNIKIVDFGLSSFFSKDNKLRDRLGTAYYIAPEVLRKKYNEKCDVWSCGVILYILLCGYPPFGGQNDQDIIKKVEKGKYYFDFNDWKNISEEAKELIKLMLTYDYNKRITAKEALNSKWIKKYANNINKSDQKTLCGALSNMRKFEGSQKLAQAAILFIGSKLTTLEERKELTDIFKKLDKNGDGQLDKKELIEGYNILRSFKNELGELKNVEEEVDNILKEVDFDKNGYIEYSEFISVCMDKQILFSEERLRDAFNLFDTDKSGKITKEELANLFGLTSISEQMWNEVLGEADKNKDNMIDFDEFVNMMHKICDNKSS
Procedure: Purified recombinant PfCDPK1 was diluted to 1 μM in 10 mM HEPES buffer (pH 7.5) containing 150 mM NaCl, 1 mM Ca^2+, and 1/1,000 SYPRO orange dye (Invitrogen). Test compounds were prediluted to 400 μM in 40% (vol/vol) DMSO in water, and 1 μl of diluted compound was added to 39 μl of enzyme/dye mix in white 96-well quantitative PCR plates (Thermo Scientific) to give a final compound concentration of 10 μM. Reference thermal melting temperatures (Tms) were obtained in parallel by the addition of 1 μl of 40% (vol/vol) DMSO to 39 μl of diluted PfCDPK1. The plates were sealed with transparent adhesive covers (Bio-Rad) and subjected to a temperature gradient from […] at a rate of 1 K/min using a quantitative PCR machine (MX3005P; Stratagene). Fluorescence data were acquired at 1-min intervals using the 6-carboxyfluorescein (FAM)/5-carboxy-X-rhodamine (ROX) filter set (λex = 492 nm; λem = 610 nm), and the raw data were exported to Excel (Microsoft) for analysis. Data were processed to identify the fluorescence maxima and minima, and the midpoints of melting curves were determined by fitting to the Boltzmann equation using XL-fit software (IDBS). Results were expressed as ΔTm values relative to DMSO controls where ΔTm = Tm in the presence of inhibitor − Tm of the DMSO controls.

[7] = design: method as in PMID 24689770; conditions: cited from earlier work; remark: listed apart in the source

Row | SMILES | mlogD [1] | % reduction in parasitemia in vivo (po) [2] | EC50 [3] | IC50 [4] | IC50 [5] | ΔTm PfCDPK1 [6] | PAMPA Papp [7]
1 | CC(C)CCNc1ccc(-c2cnc3ccc(NC4CCN(C)CC4)nn23)cn1 [Compound 1] | 3.4 | 46 (4) % | 439 nM | < 10 nM |  |  | 
2 | Cc1ccc(F)c(Nc2ccc(-c3cnc4ccc(NC5CCC(N)CC5)nn34)cc2)n1 (stereo not drawn) [Compound 7] | 2.2 |  |  | < 10 nM | < 10 nM | 23 K | 1.8 ×10⁻⁶ cm/s

From publication PMC4187893, “Biochemical and Antiparasitic Properties of Inhibitors of the Plasmodium falciparum Calcium-Dependent Protein Kinase PfCDPK1” (Antimicrobial Agents and Chemotherapy, 2014)
